Experiments:
[1] = Mouse cancer model studies of Example 5, all models: animal death; type: in vivo; details: any model, entire therapies; with oral gavage of 20 ml/kg water
Experimental: (§1) All the procedures related to animal handling, care, and the treatment in the study were performed following guidelines of KeyGen Biotechn Co., Ltd. (Nanjing, China), a contract research organization we hired, based on the guidance of the Association for Assessment and Accreditation of Laboratory Animal Care (AAALAC). Animals were checked for any effects of tumor growth and drug treatment on normal behavior such as mobility, food and water consumption, body weight gain/loss (bodyweights were measured every two days), eye/hair matting, and any other abnormal effect. Death and observed clinical signs were recorded. Individual animals with a tumor volume exceeding 3,000 mm^3 or animals of a group with a mean tumor volume exceeding 2,000 mm^3 were euthanized. In addition, animals showing signs of severe distress and/or pain or losing the capability of accessing adequate food or water were humanely sacrificed.
Each mouse was inoculated subcutaneously in right armpit with about 1×10^6 cells in 0.1 ml of PBS for tumor development. While cells of human in origin were inoculated into female BALB/c nude mice, MFC cells were inoculated into female 615 mice and U14 and 5180 cells into female ICR mice. When a mean tumor volume reached 50 to 150 mm^3 as indicated, the tumor-bearing mice were divided randomly into vehicle control and ITE treatment group. […]

[2] = test system: A375 (human skin cancer) xenografts; test: A375 xenograft growth inhibition; type: in vivo; details: ITE 100-200 mg/kg i.p. once daily
Experimental: as §1
Cell lines HCT116, Siha, MFC were cultured in DMEM medium (high glucose) supplemented with 10% fetal bovine serum (FBS), SW116 and T24 in RPMI-1640 medium with 10% FBS, M14 and A375 in DMEM medium (high glucose) with 10% calf serum (CS), SGC7901 and Ketr-3 in RPMI-1640 medium with 10% CS, and CFPAC-1 in IMDM medium with 10% FBS. All of the cells were cultured, in the presence of 100 U/ml penicillin and 100 μg/ml streptomycin, at 37° C. in an atmosphere of 5% CO2 in air. […] The cells growing in an exponential phase were harvested and counted for tumor inoculation. Cell lines 5180 and U14 were maintained in ascites (peritoneal cavity fluid) of mice and were harvested and counted for tumor inoculation. […]
Tumor volume was measured every two days in two dimensions using a caliper and the volume was calculated with a formula of: V=0.5 a×b^2, where a and b are the long and short diameter (in mm) of a tumor, respectively. […] The TGD was calculated as: TGD=T−C, where T was the time (in days) required for tumors in a drug treated group to reach a predetermined mean tumor volume and C the time (in days) in the control group to reach the same volume. […]

COC(=O)c1csc(C(=O)c2c[nH]c3ccccc23)n1 [ITE, 2-(1′H-indole-3′-carbonyl)-thiazole-4-carboxylic acid methyl ester]
animal death in ITE treatment group [1]: no single animal death
TGD ([2]; TGD at Vol. 1,000): 7 days
TGI (%) ([2]; TGI at day 16, TGI=(1−ΔT/ΔC)×100%): 60%
Weight Loss ([2]; end of therapy relative to beginning): 18%

Reference: patent US10632106B2, “Methods of cancer treatment with 2-(1′H-Indole-3′-carbonyl)-thiazole-4-carboxylic acid methyl ester” (Ariagen, Inc., priority 2009, dated 2020)
